# According to US20260125374A1, “PI3K-ALPHA INHIBITORS AND METHODS OF MAKING AND USING THE SAME” (Relay Therapeutics, Inc., priority 2021, published 2026):
# “Also recorded” adds a separate entry of the source.
# Tests used:
# Bulk stability (1 week) = format: physicochemical; set-up: key to CL (color): A: No change of color; B: Slight discoloration; C: Medium discoloration; D: Strong discoloration; DC: complete decomposition; settings: for Chemical stability / Physical stability: Salt candidates risk matrix (summary); for CL (color) / Bulk (HPLC) chiral purity / Bulk (HPLC) purity / Bulk (XRPD): Solid state; for Chiral purity (initial) / Initial purity by HPLC: before storage
# Description: Bulk stability of I-1 Form A and the 2 salt candidates was investigated at 25° C./92% RH in an open container, at 40° C./75% RH in an open container and at 60° C. in a tight container over 1 week. […] All the 3 salts show no obvious racemization based on chiral purity results.
# I-1 Form A and the 2 salts were placed at 25° C./92% RH in an open container, at 40° C./75% RH in an open container and at 60° C. in a closed container for I week. Samples after I week were characterized by XRPD and HPLC and inspected for color change.
# [1] = Suspension stability at 25° C.; format: physicochemical; settings: for Solubility (μg/mL): LOQ: 0.25 μg/mL; for Initial chiral purity: before suspension; for physical form of residual solids (XRPD): 0.5% MC (400 cP)+2% Vitamin E TPGS
# Description: Suspension stability: Suspension stability of I-1 Form A and the 2 salt candidates was investigated in pure water, 0.5% (w/w) Tween 80 aqueous solution and 0.5% (w/w) MC (400 cP)+2% (w/w) Vitamin E TPGS aqueous solution at 25° C. for 2 h and 24 h. Target concentration was 2 mg/mL.
# To confirm whether racemization occurs for the 2 salts in 0.5% (w/w) MC (400 cP)+2% (w/w) Vitamin E TPGS aqueous solution, the suspension stability in this vehicle was repeated at target concentration of 10 mg/mL. […] The hygroscopicity of these salts were further investigated.
# Accurate 10 mg of I-1 Form A, 12.83 mg of I-3 Form A, 11.58 mg of I-4 Form A was weighed into a 8 mL glass vial, respectively. 5 mL of suspension vehicle was added, respectively. The salt amount used is equivalent to 10 mg anhydrous free form. These suspensions were stirred at 25° C. with 400 rpm. These suspensions were taken out at 2 hours and 24 hours, then centrifuged at 14,000 rpm for 5 min. The supernatants were analyzed by HPLC and pH meter. Solids obtained (wet cakes) were characterized by XRPD and HPLC to determine the chiral purity.
# Accurate […] of I-3 Form A, 46.3 mg of I-4 Form A was weighed into a 8 mL glass vial, respectively. 4 mL of solubility medium was added, respectively. The salt amount used is equivalent to 40 mg anhydrous free form. 4 mL of the aqueous vehicle (0.5% (w/w) MC (400 cP) and 2% (w/w) Vitamin E TPGS in water) was added, respectively. These suspensions were stirred at 25° C. with 400 rpm. These suspensions were taken out at 2 hours and 24 hours, then centrifuged at 14,000 rpm for 5 min. The supernatants were analyzed by HPLC for the solubility and chiral purity and analyzed by pH meter. Solids obtained (wet cakes) were characterized by XRPD and HPLC for chiral purity.
# [2] = 25° C./92% RH, open container, 1 week
# [3] = 25° C./92% RH, open container, 1 week, listed as I-1 Form A
# [4] = 40° C./75% RH, open container, 1 week
# [5] = 40° C./75% RH, open container, 1 week, listed as I-1 Form A
# [6] = 60° C., tight container, 1 week
# [7] = 60° C., tight container, 1 week, listed as I-1 Form A
# [8] = 25° C., 2 mg/mL, 0.5%(w/w) MC(400 cP) and 2%(w/w) Vitamin E TPGS in water, 2 h, listed as I-1 Form A
# [9] = 25° C., 2 mg/mL, 0.5%(w/w) MC(400 cP) and 2%(w/w) Vitamin E TPGS in water, 24 h, listed as I-1 Form A
# [10] = 25° C., 2 mg/mL, 0.5%(w/w) Tween 80 in water, 2 h, listed as I-1 Form A
# [11] = 25° C., 2 mg/mL, 0.5%(w/w) Tween 80 in water, 24 h, listed as I-1 Form A
# [12] = 25° C., 2 mg/mL, Pure water, 2 h, listed as I-1 Form A
# [13] = 25° C., 2 mg/mL, Pure water, 24 h, listed as I-1 Form A
# [14] = 25° C./92% RH, open container, 1 week, listed as I-3 Form A
# [15] = 40° C./75% RH, open container, 1 week, listed as I-3 Form A
# [16] = 60° C., tight container, 1 week, listed as I-3 Form A
# [17] = 25° C., 2 mg/mL, 0.5%(w/w) MC(400 cP) and 2%(w/w) Vitamin E TPGS in water, 2 h, listed as I-3 Form A
# [18] = 25° C., 2 mg/mL, 0.5%(w/w) MC(400 cP) and 2%(w/w) Vitamin E TPGS in water, 24 h, listed as I-3 Form A
# [19] = 25° C., 2 mg/mL, 0.5%(w/w) Tween 80 in water, 2 h, listed as I-3 Form A
# [20] = 25° C., 2 mg/mL, 0.5%(w/w) Tween 80 in water, 24 h, listed as I-3 Form A
# [21] = 25° C., 2 mg/mL, Pure water, 2 h, listed as I-3 Form A
# [22] = 25° C., 2 mg/mL, Pure water, 24 h, listed as I-3 Form A
# [23] = 25° C., 10 mg/mL, 0.5(w/w) MC(400 cP) and 2%(w/w) Vitamin E TPGS in water, 2 h, listed as I-3 Form A
# [24] = 25° C., 10 mg/mL, 0.5(w/w) MC(400 cP) and 2%(w/w) Vitamin E TPGS in water, 24 h, listed as I-3 Form A
compound,measurement,setting,value
"N#Cc1c(-c2cc(NC(=O)c3cc(F)cc(C(F)(F)F)c3)c3c(c2)C(=O)N[C@H]3c2cc(F)ccc2Cl)ccc2ncnn12 [Compound I-1, (R)-N-(3-(2-chloro-5-fluorophenyl)-6-(5-cyano-[1,2,4]triazolo[1,5-a]pyridin-6-yl)-1-oxoisoindolin-4-yl)-3-fluoro-5-(trifluoromethyl)benzamide]",Chemical stability,Bulk stability (1 week),Stable
same,Physical stability,Bulk stability (1 week),Stable
same,CL (color),Bulk stability (1 week); [2],A
same,Bulk (HPLC) chiral purity,Bulk stability (1 week); [3],98.9%
same,Bulk (HPLC) purity,Bulk stability (1 week); [3],99.0%/
same,Bulk (XRPD),Bulk stability (1 week); [3],No form change
same,CL (color),Bulk stability (1 week); [4],A
same,Bulk (HPLC) chiral purity,Bulk stability (1 week); [5],98.9%
same,Bulk (HPLC) purity,Bulk stability (1 week); [5],99.0%/
same,Bulk (XRPD),Bulk stability (1 week); [5],No form change
same,Bulk (XRPD),Bulk stability (1 week); [6],No form change
same,CL (color),Bulk stability (1 week); [6],A
same,Bulk (HPLC) chiral purity,Bulk stability (1 week); [7],98.9%
same,Bulk (HPLC) purity,Bulk stability (1 week); [7],99.0%/
same,Chiral purity (initial),Bulk stability (1 week); listed as I-1 Form A,99.0%
same,Initial purity by HPLC,Bulk stability (1 week); listed as I-1 Form A,99.0%
same,physical stability in suspension (XRPD),"[1]; 3 vehicles, 25° C., 2 mg/mL",physically stable
same,racemization in suspension,"[1]; 3 vehicles, 25° C., 2 mg/mL",no racemization
same,Chiral purity (solids),"[1]; 25° C., 2 mg/mL, 0.5%(w/w) MC(400 cP) and 2%(w/w) Vitamin E TPGS in water, 2 h",98.7%
same,Chiral purity,[1]; [8],64.8%
same,Purity,[1]; [8],99.5%
same,Solubility,[1]; [8],47.9 µg/mL
same,pH,[1]; [8],5.02
same,Chiral purity (solids),"[1]; 25° C., 2 mg/mL, 0.5%(w/w) MC(400 cP) and 2%(w/w) Vitamin E TPGS in water, 24 h",96.6%
same,Chiral purity,[1]; [9],97.7%
same,Purity,[1]; [9],99.1%
same,Solubility,[1]; [9],34.5 µg/mL
same,pH,[1]; [9],4.30
same,Chiral purity,[1]; [10],83.2%
same,Chiral purity (solids),[1]; [10],98.8%
same,Purity,[1]; [10],99.1%
same,Solubility,[1]; [10],25.5 µg/mL
same,pH,[1]; [10],6.52
same,Chiral purity,[1]; [11],93.0%
same,Chiral purity (solids),[1]; [11],97.6%
same,Purity,[1]; [11],99.2%
same,Solubility,[1]; [11],17.6 µg/mL
same,pH,[1]; [11],7.40
same,Solubility (μg/mL),"[1]; 25° C., 2 mg/mL, Pure water, 2 h",<LOQ
same,Chiral purity (solids),[1]; [12],98.8%
same,Purity,[1]; [12],99.1%
same,pH,[1]; [12],6.79
same,Solubility (μg/mL),"[1]; 25° C., 2 mg/mL, Pure water, 24 h",<LOQ
same,Chiral purity (solids),[1]; [13],96.7%
same,Purity,[1]; [13],99.2%
same,pH,[1]; [13],8.27
same,Initial chiral purity,[1]; listed as I-1 Form A,Initial chiral purity: 98.9%
same,chemical stability in suspension,"[1]; water, 0.5% Tween 80, 0.5% MC (400 cP)+2% Vitamin E TPGS, 25° C., 2 h and 24 h, 2 mg/mL",chemically stable
N#Cc1c(-c2cc(NC(=O)c3cc(F)cc(C(F)(F)F)c3)c3c(c2)C(=O)N[C@H]3c2cc(F)ccc2Cl)ccc2ncnn12 [Compound I-3],bulk stability (chemical and physical),"Bulk stability (1 week); 25° C./92% RH open, 40° C./75% RH open, 60° C. tight container, 1 week, listed as I-3 Form A",chemically and physically stable; also recorded: chemically stable and shows no XRPD change; also recorded: good chemical and physical bulk stability
same,Chemical stability,Bulk stability (1 week),Stable
same,Physical stability,Bulk stability (1 week),Stable
same,CL (color),Bulk stability (1 week); [2],A
same,Bulk (HPLC) chiral purity,Bulk stability (1 week); [14],98.3%
same,Bulk (HPLC) purity,Bulk stability (1 week); [14],99.4%/
same,Bulk (XRPD),Bulk stability (1 week); [14],No form change*
same,CL (color),Bulk stability (1 week); [4],A
same,Bulk (HPLC) chiral purity,Bulk stability (1 week); [15],98.5%
same,Bulk (HPLC) purity,Bulk stability (1 week); [15],99.3%/
same,Bulk (XRPD),Bulk stability (1 week); [15],No form change*
same,Bulk (XRPD),Bulk stability (1 week); [6],No form change
same,CL (color),Bulk stability (1 week); [6],A
same,Bulk (HPLC) chiral purity,Bulk stability (1 week); [16],98.3%
same,Bulk (HPLC) purity,Bulk stability (1 week); [16],99.5%/
same,Chiral purity (initial),Bulk stability (1 week); listed as I-3 Form A,98.6%
same,Initial purity by HPLC,Bulk stability (1 week); listed as I-3 Form A,99.5%
same,physical form of residual solids (XRPD),"[1]; 10 mg/mL, 2 h sample, listed as I-3 Form A",converted to a hydrate (I-3 Form B)
same,physical form of residual solids (XRPD),"[1]; 10 mg/mL, 2 h sample, listed as tosylate salt",a form change
same,physical form of residual solids (XRPD),"[1]; 10 mg/mL, 24 h sample",remained unchanged
same,Chiral purity,[1]; [17],86.4%
same,Purity,[1]; [17],99.3%
same,Solubility,[1]; [17],1220.9 µg/mL
same,pH,[1]; [17],2.76
same,Chiral purity,[1]; [18],98.3%
same,Purity,[1]; [18],99.3%
same,Solubility,[1]; [18],1990.7 µg/mL
same,pH,[1]; [18],2.62
same,Chiral purity,[1]; [19],95.8%
same,Chiral purity (solids),[1]; [19],98.0%
same,Purity,[1]; [19],99.4%
same,Solubility,[1]; [19],244.6 µg/mL
same,pH,[1]; [19],3.11
same,Chiral purity,[1]; [20],98.5%
same,Chiral purity (solids),[1]; [20],94.2%
same,Purity,[1]; [20],99.4%
same,Solubility,[1]; [20],17.9 µg/mL
same,pH,[1]; [20],2.63
same,Chiral purity (solids),[1]; [21],98.3%
same,Purity,[1]; [21],99.6%
same,pH,[1]; [21],5.59
same,Chiral purity (solids),[1]; [22],98.3%
same,Purity,[1]; [22],99.5%
same,pH,[1]; [22],2.85
same,"Chiral purity, liquid",[1]; [23],99.4%;
same,"Chiral purity, solid",[1]; [23],97.9%
same,Solubility,[1]; [23],3433.2 µg/mL
same,pH,[1]; [23],2.30
same,"Chiral purity, liquid",[1]; [24],99.4%;
same,"Chiral purity, solid",[1]; [24],98.3%
same,Purity,[1]; [24],99.7%
same,Solubility,[1]; [24],3083.9 µg/mL
same,pH,[1]; [24],2.17
same,Initial chiral purity,[1]; listed as I-3 Form A,Initial chiral purity: 98.6%
